Source: patent US10316035B2, “Triazolopyridine inhibitors of myeloperoxidase” (BRISTOL-MYERS SQUIBB COMPANY, priority 2015, dated 2019)

target: T1, myeloperoxidase (MPO) (Homo sapiens, UniProt P05164); assay: MPO peroxidation assay (Amplex Red assay); assay type: biochemical; conditions: MPO peroxidation, potency range class; read-out: Amplex Red IC50
T1 sequence (P05164 49-745): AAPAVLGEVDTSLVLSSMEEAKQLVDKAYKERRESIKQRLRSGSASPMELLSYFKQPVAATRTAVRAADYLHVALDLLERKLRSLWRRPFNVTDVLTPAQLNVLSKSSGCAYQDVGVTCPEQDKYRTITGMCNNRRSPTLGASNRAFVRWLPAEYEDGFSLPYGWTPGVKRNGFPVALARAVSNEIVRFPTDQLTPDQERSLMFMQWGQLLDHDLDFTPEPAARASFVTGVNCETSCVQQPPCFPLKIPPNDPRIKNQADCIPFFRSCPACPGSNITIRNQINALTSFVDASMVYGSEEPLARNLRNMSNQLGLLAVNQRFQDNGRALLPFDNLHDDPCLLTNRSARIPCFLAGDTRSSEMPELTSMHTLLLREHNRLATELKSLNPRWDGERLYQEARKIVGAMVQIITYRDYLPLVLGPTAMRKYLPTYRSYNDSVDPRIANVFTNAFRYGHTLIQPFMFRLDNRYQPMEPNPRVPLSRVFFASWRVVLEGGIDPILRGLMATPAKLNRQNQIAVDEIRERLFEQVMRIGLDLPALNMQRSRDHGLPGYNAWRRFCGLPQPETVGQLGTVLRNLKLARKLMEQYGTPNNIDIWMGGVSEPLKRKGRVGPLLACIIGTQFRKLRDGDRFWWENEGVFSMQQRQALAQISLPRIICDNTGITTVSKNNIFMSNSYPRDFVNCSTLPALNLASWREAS
Method in brief: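 Peroxidase turnover of Amplex Red to fluorescent resorufin (Ex 535/Em 590 nm) was followed for 15 min in 100 mM KPi, pH 7.4, after 10 min room-temperature preincubation of compound with 200 pM enzyme plus 40 nM H2O2. The substrate mix contained 200 μM Amplex Red and 10 mM H2O2. IC50s came from linear-phase rates (180–540 s) fitted with a Hill equation.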

Compared with COc1ncc(-c2ccc(COc3cc(N)nc4[nH]nnc34)c(OC(F)(F)F)c2)cn1 [Example 288, 7-((4-(2-methoxypyrimidin-5-yl)-2-(trifluoromethoxy)benzyl)oxy)-3H-[1,2,3] triazolo[4,5-b]pyridin-5-amine], COc1ccc(-c2ccc(COc3cc(N)nc4[nH]nnc34)c(OC(F)(F)F)c2)cn1 [Example 290, 7-((4-(6-methoxypyridin-3-yl)-2-(trifluoromethoxy)benzyl)oxy)-3H-[1,2,3] triazolo[4,5-b]pyridin-5-amine] is lower in IC50: 101 to 999 nM for the first, 1 to 100 nM for the second. The second is the more potent here.

CSc1ccc(-c2ccc(COc3cc(N)nc4[nH]nnc34)c(OC(F)(F)F)c2)cn1 [Example 289, 7-((4-(6-(methylthio)pyridin-3-yl)-2-(trifluoromethoxy)benzyl)oxy)-3H-[1,2,3] triazolo[4,5-b]pyridin-5-amine] and Nc1ccc(-c2ccc(COc3cc(N)nc4[nH]nnc34)c(OC(F)(F)F)c2)cn1 [Example 291, 7-((4-(6-aminopyridin-3-yl)-2-(trifluoromethoxy)benzyl)oxy)-3H-[1,2,3]triazolo[4,5-b] pyridin-5-amine] fall in the same range of IC50: 1 to 100 nM for the first, 1 to 100 nM for the second.

N#Cc1ccc(-c2ccc(COc3cc(N)nc4[nH]nnc34)c(OC(F)(F)F)c2)cn1 [Example 292, 5-(4-(((5-amino-3H-[1,2,3]triazolo[4,5-b]pyridin-7-yl)oxy)methyl)-3-(trifluoromethoxy)phenyl)picolinonitrile] and Nc1cc(OCc2ccc(-c3ccc(Cl)nc3)cc2OC(F)(F)F)c2nn[nH]c2n1 [Example 302, 7-((4-(6-chloropyridin-3-yl)-2-(trifluoromethoxy)benzyl)oxy)-3H-[1,2,3] triazolo[4,5-b]pyridin-5-amine] fall in the same range of IC50: 1 to 100 nM for the first, 1 to 100 nM for the second.

Compared with CC(C)Oc1ccc(-c2ccc(COc3cc(N)nc4[nH]nnc34)c(OC(F)(F)F)c2)cn1 [Example 293, 7-((4-(6-isopropoxypyridin-3-yl)-2-(trifluoromethoxy)benzyl)oxy)-3H-[1,2,3] triazolo[4,5-b]pyridin-5-amine], Nc1cc(OCc2ccc(-c3ccc(O)nc3)cc2OC(F)(F)F)c2nn[nH]c2n1 [Example 307, 5-(4-(((5-amino-3H-[1,2,3]triazolo[4,5-b]pyridin-7-yl)oxy)methyl)-3-(trifluoromethoxy)phenyl)pyridin-2-ol] is lower in IC50: 101 to 999 nM for the first, 1 to 100 nM for the second.

First: CS(=O)(=O)c1cncc(-c2ccc(COc3cc(N)nc4[nH]nnc34)c(OC(F)(F)F)c2)c1 [Example 294, 7-((4-(5-(methylsulfonyl)pyridin-3-yl)-2-(trifluoromethoxy)benzyl)oxy)-3H-[1,2,3] triazolo[4,5-b]pyridin-5-amine]
Second: Nc1cc(OCc2ccc(-c3cncc(F)c3)cc2OC(F)(F)F)c2nn[nH]c2n1 [Example 308, 7-((4-(5-fluoropyridin-3-yl)-2-(trifluoromethoxy)benzyl)oxy)-3H-[1,2,3] triazolo[4,5-b]pyridin-5-amine]
The IC50 of the first is higher: 101 to 999 nM for the first, 1 to 100 nM for the second.

Compared with CS(=O)(=O)N1CCN(c2ccc(-c3ccc(COc4cc(N)nc5[nH]nnc45)c(OC(F)(F)F)c3)cn2)CC1 [Example 295, 7-((4-(6-(4-(methylsulfonyl)piperazin-1-yl)pyridin-3-yl)-2-(trifluoromethoxy)benzyl)oxy)-3H-[1,2,3] triazolo[4,5-b]pyridin-5-amine], CN1CCN(c2ccc(-c3ccc(COc4cc(N)nc5[nH]nnc45)c(OC(F)(F)F)c3)cn2)CC1 [Example 300, 7-((4-(6-(4-methylpiperazin-1-yl)pyridin-3-yl)-2-(trifluoromethoxy)benzyl)oxy)-3H-[1,2,3] triazolo[4,5-b]pyridin-5-amine] is lower in IC50: 101 to 999 nM for the first, 1 to 100 nM for the second.

Nc1cc(OCc2ccc(-c3ccc(CO)nc3)cc2OC(F)(F)F)c2nn[nH]c2n1 [Example 296, (5-(4-(((5-amino-3H-[1,2,3]triazolo[4,5-b]pyridin-7-yl)oxy)methyl)-3-(trifluoromethoxy)phenyl)pyridin-2-yl)methanol] and Nc1cc(OCc2ccc(-c3ccnc(O)c3)cc2OC(F)(F)F)c2nn[nH]c2n1 [Example 304, 4-(4-(((5-amino-3H-[1,2,3]triazolo[4,5-b]pyridin-7-yl)oxy)methyl)-3-(trifluoromethoxy)phenyl)pyridin-2-ol] fall in the same range of IC50: 1 to 100 nM for the first, 1 to 100 nM for the second.

Nc1cc(OCc2ccc(-c3ccc(N4CCNCC4)nc3)cc2OC(F)(F)F)c2nn[nH]c2n1 [Example 297, 7-((4-(6-(piperazin-1-yl)pyridin-3-yl)-2-(trifluoromethoxy)benzyl)oxy)-3H-[1,2,3] triazolo[4,5-b]pyridin-5-amine] and Nc1cc(OCc2ccc(-c3ccc(N4CCOCC4)nc3)cc2OC(F)(F)F)c2nn[nH]c2n1 [Example 303, 7-((4-(6-morpholinopyridin-3-yl)-2-(trifluoromethoxy)benzyl)oxy)-3H-[1,2,3] triazolo[4,5-b]pyridin-5-amine] fall in the same range of IC50: 1 to 100 nM for the first, 1 to 100 nM for the second.

CN1CCN(c2cc(-c3ccc(COc4cc(N)nc5[nH]nnc45)c(OC(F)(F)F)c3)ccn2)CC1 [Example 299, 7-((4-(2-(4-methylpiperazin-1-yl)pyridin-4-yl)-2-(trifluoromethoxy)benzyl)oxy)-3H-[1,2,3] triazolo[4,5-b]pyridin-5-amine] and Nc1cc(OCc2ccc(-c3cccc(S(N)(=O)=O)c3)cc2OC(F)(F)F)c2nn[nH]c2n1 [Example 301, 4′-(((5-amino-3H-[1,2,3]triazolo[4,5-b]pyridin-7-yl)oxy)methyl)-3′-(trifluoromethoxy)-[1,1′-biphenyl]-3-sulfonamide] fall in the same range of IC50: 1 to 100 nM for the first, 1 to 100 nM for the second.

COc1cc(-c2ccc(COc3cc(N)nc4[nH]nnc34)c(OC(F)(F)F)c2)c(F)cn1 [Example 309, 7-((4-(5-fluoro-2-methoxypyridin-4-yl)-2-(trifluoromethoxy)benzyl)oxy)-3H-[1,2,3] triazolo[4,5-b]pyridin-5-amine] and COc1ccc(-c2ccc(COc3cc(N)nc4[nH]nnc34)c(C#N)c2)cn1 [Example 310, 2-(((5-amino-3H-[1,2,3]triazolo[4,5-b]pyridin-7-yl)oxy)methyl)-5-(6-methoxypyridin-3-yl)benzonitrile] fall in the same range of IC50: 1 to 100 nM for the first, 1 to 100 nM for the second.

N#Cc1cc(-c2ccc(N)nc2)ccc1COc1cc(N)nc2[nH]nnc12 [Example 311, 2-(((5-amino-3H-[1,2,3]triazolo[4,5-b]pyridin-7-yl)oxy)methyl)-5-(6-aminopyridin-3-yl)benzonitrile] and N#Cc1cc(-c2ccc(O)nc2)ccc1COc1cc(N)nc2[nH]nnc12 [Example 312, 2-(((5-amino-3H-[1,2,3]triazolo[4,5-b]pyridin-7-yl)oxy)methyl)-5-(6-hydroxypyridin-3-yl)benzonitrile] fall in the same range of IC50: 1 to 100 nM for the first, 1 to 100 nM for the second.

N#Cc1cc(-c2ccc(CO)nc2)ccc1COc1cc(N)nc2[nH]nnc12 [Example 313, 2-(((5-amino-3H-[1,2,3]triazolo[4,5-b]pyridin-7-yl)oxy)methyl)-5-(6-(hydroxymethyl)pyridin-3-yl)benzonitrile] and N#Cc1cc(-c2ccc(C(F)(F)F)nc2)ccc1COc1cc(N)nc2[nH]nnc12 [Example 315, 2-(((5-amino-3H-[1,2,3]triazolo[4,5-b]pyridin-7-yl)oxy)methyl)-5-(6-(trifluoromethyl)pyridin-3-yl)benzonitrile] fall in the same range of IC50: 1 to 100 nM for the first, 1 to 100 nM for the second.

Work on COc1ncc(-c2ccc(COc3cc(N)nc4[nH]nnc34)c(C#N)c2)cn1 [Example 314, 2-(((5-amino-3H-[1,2,3]triazolo[4,5-b]pyridin-7-yl)oxy)methyl)-5-(2-methoxypyrimidin-5-yl)benzonitrile] yielded an IC50 of 1 to 100 nM.
